Our source for the viability, T/C values is PubChem BioAssay AID1918991 (Molecular Pharmacology Branch, DTP, NCI, 2023).
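Further: luminescent signal used as a stand-in for viable cell amount; spheroids exposed to compounds for seven days before the viability read; 100% = DMSO vehicle control wells.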

One assay has as its system 186277-243-T-J2-PDC complex spheroid growth. Nature of the assay: Anticancer human tumor 186277-243-T-J2-PDC patient-derived colon adenocarcinoma cell line growth inhibition [AhR]. As to conditions: second compound 3.16 µM; first compound 0.316 µM; active compounds read low. The method in brief:
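Complex tumor spheroids co-cultured with HUVEC and human MSC stroma; AhR antagonists tested in combination with standard-of-care and investigational agents. Top concentration at or near clinical Cmax (else 10 microM), half-log dilutions; growth expressed as percent test/control.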
Regarding `COc1ccc([C@@H](O)c2cc(-c3ncnc4cc(N5CCOCC5)ccc34)c(F)cc2Cl)nn1` + Cc1ccccc1N=Nc1ccc(NC(=O)c2ccnn2C)c(C)c1, the viability, T/C was 89.7%.

Consider `COc1cccc2c1C(=O)c1c(O)c3c(c(O)c1C2=O)CC(O)(C(=O)CO)CC3OC1CC(N)C(O)C(C)O1` (centres undefined) + Cc1cncc(-c2nc(NCCc3c[nH]c4ccccc34)c3ncn(C(C)C)c3n2)c1, for which the viability, T/C was 10.8%.

On to `Nc1ncn(C2CC(O)C(CO)O2)c(=O)n1` (centres undefined) + Cc1cncc(-c2nc(NCCc3c[nH]c4ccccc34)c3ncn(C(C)C)c3n2)c1, for which the viability, T/C was 120%.

Still in this assay, the particulars now being: second compound 3.16 µM; first compound 1 µM; active compounds read low.
On to `CC(C)c1c(-c2ccccc2)nc2c(C#N)c[nH]n2c1=O` + Cc1ccccc1N=Nc1ccc(NC(=O)c2ccnn2C)c(C)c1, for which the viability, T/C was 99.7%.

Take `CC1COCCN1c1cc(-c2ccnn2C)c2ccnc(-c3ccn[nH]3)c2n1` (centres undefined) + Cc1ccccc1N=Nc1ccc(NC(=O)c2ccnn2C)c(C)c1: the viability, T/C was 7.15%.

In the case of `COc1ccc([C@@H](O)c2cc(-c3ncnc4cc(N5CCOCC5)ccc34)c(F)cc2Cl)nn1` + Cc1ccccc1N=Nc1ccc(NC(=O)c2ccnn2C)c(C)c1, the viability, T/C is 79.8%.

In the case of `COc1cccc2c1C(=O)c1c(O)c3c(c(O)c1C2=O)CC(O)(C(=O)CO)CC3OC1CC(N)C(O)C(C)O1` (centres undefined) + Cc1cncc(-c2nc(NCCc3c[nH]c4ccccc34)c3ncn(C(C)C)c3n2)c1, the viability, T/C was 0.05%.

Turning to `Nc1ncn(C2CC(O)C(CO)O2)c(=O)n1` (centres undefined) + Cc1cncc(-c2nc(NCCc3c[nH]c4ccccc34)c3ncn(C(C)C)c3n2)c1, the viability, T/C was 165%.

Still in this assay, the particulars now being: second compound 3.16 µM; first compound 3.16 µM; active compounds read low.
In the case of `CC(C)c1c(-c2ccccc2)nc2c(C#N)c[nH]n2c1=O` + Cc1ccccc1N=Nc1ccc(NC(=O)c2ccnn2C)c(C)c1, the viability, T/C is 99.7%.

Take `COc1ccc([C@@H](O)c2cc(-c3ncnc4cc(N5CCOCC5)ccc34)c(F)cc2Cl)nn1` + Cc1ccccc1N=Nc1ccc(NC(=O)c2ccnn2C)c(C)c1: the viability, T/C is 76.2%.

`COc1cccc2c1C(=O)c1c(O)c3c(c(O)c1C2=O)CC(O)(C(=O)CO)CC3OC1CC(N)C(O)C(C)O1` (centres undefined) + Cc1cncc(-c2nc(NCCc3c[nH]c4ccccc34)c3ncn(C(C)C)c3n2)c1: the viability, T/C was 0.21%.

Still in this assay, the particulars now being: second compound 3.16 µM; first compound 10 µM; active compounds read low.
As for `CC(C)c1c(-c2ccccc2)nc2c(C#N)c[nH]n2c1=O` + Cc1ccccc1N=Nc1ccc(NC(=O)c2ccnn2C)c(C)c1, the viability, T/C was 98.7%.

`COc1ccc([C@@H](O)c2cc(-c3ncnc4cc(N5CCOCC5)ccc34)c(F)cc2Cl)nn1` + Cc1ccccc1N=Nc1ccc(NC(=O)c2ccnn2C)c(C)c1: the viability, T/C was 54.2%.

Take `COc1cccc2c1C(=O)c1c(O)c3c(c(O)c1C2=O)CC(O)(C(=O)CO)CC3OC1CC(N)C(O)C(C)O1` (centres undefined) + Cc1cncc(-c2nc(NCCc3c[nH]c4ccccc34)c3ncn(C(C)C)c3n2)c1: the viability, T/C is 0.79%.

The same assay, now with this note: second compound 10 µM; first compound 0.00316 µM; active compounds read low.
On to `CC1COCCN1c1cc(-c2ccnn2C)c2ccnc(-c3ccn[nH]3)c2n1` (centres undefined) + Cc1ccccc1N=Nc1ccc(NC(=O)c2ccnn2C)c(C)c1, for which the viability, T/C is 77%.

As to `Nc1ncn(C2CC(O)C(CO)O2)c(=O)n1` (centres undefined) + Cc1cncc(-c2nc(NCCc3c[nH]c4ccccc34)c3ncn(C(C)C)c3n2)c1, the viability, T/C was 59.8%.

The same assay, now with this note: second compound 10 µM; first compound 0.01 µM; active compounds read low.
In the case of `CC1COCCN1c1cc(-c2ccnn2C)c2ccnc(-c3ccn[nH]3)c2n1` (centres undefined) + Cc1ccccc1N=Nc1ccc(NC(=O)c2ccnn2C)c(C)c1, the viability, T/C is 91.9%.

As for `Nc1ncn(C2CC(O)C(CO)O2)c(=O)n1` (centres undefined) + Cc1cncc(-c2nc(NCCc3c[nH]c4ccccc34)c3ncn(C(C)C)c3n2)c1, the viability, T/C is 65.1%.

Staying with this assay, now noted: second compound 10 µM; first compound 0.0316 µM; active compounds read low.
Consider `CC(C)c1c(-c2ccccc2)nc2c(C#N)c[nH]n2c1=O` + Cc1ccccc1N=Nc1ccc(NC(=O)c2ccnn2C)c(C)c1, for which the viability, T/C was 102%.

As to `CC1COCCN1c1cc(-c2ccnn2C)c2ccnc(-c3ccn[nH]3)c2n1` (centres undefined) + Cc1ccccc1N=Nc1ccc(NC(=O)c2ccnn2C)c(C)c1, the viability, T/C was 74.3%.

Consider `COc1ccc([C@@H](O)c2cc(-c3ncnc4cc(N5CCOCC5)ccc34)c(F)cc2Cl)nn1` + Cc1ccccc1N=Nc1ccc(NC(=O)c2ccnn2C)c(C)c1, for which the viability, T/C was 76.3%.

Turning to `COc1cccc2c1C(=O)c1c(O)c3c(c(O)c1C2=O)CC(O)(C(=O)CO)CC3OC1CC(N)C(O)C(C)O1` (centres undefined) + Cc1cncc(-c2nc(NCCc3c[nH]c4ccccc34)c3ncn(C(C)C)c3n2)c1, the viability, T/C was 21.9%.

As to `Nc1ncn(C2CC(O)C(CO)O2)c(=O)n1` (centres undefined) + Cc1cncc(-c2nc(NCCc3c[nH]c4ccccc34)c3ncn(C(C)C)c3n2)c1, the viability, T/C is 56.7%.

Staying with this assay, now noted: second compound 10 µM; first compound 0.1 µM; active compounds read low.
`CC(C)c1c(-c2ccccc2)nc2c(C#N)c[nH]n2c1=O` + Cc1ccccc1N=Nc1ccc(NC(=O)c2ccnn2C)c(C)c1: the viability, T/C is 97.2%.

Turning to `CC1COCCN1c1cc(-c2ccnn2C)c2ccnc(-c3ccn[nH]3)c2n1` (centres undefined) + Cc1ccccc1N=Nc1ccc(NC(=O)c2ccnn2C)c(C)c1, the viability, T/C was 33.7%.

For the compound `COc1ccc([C@@H](O)c2cc(-c3ncnc4cc(N5CCOCC5)ccc34)c(F)cc2Cl)nn1` + Cc1ccccc1N=Nc1ccc(NC(=O)c2ccnn2C)c(C)c1, the viability, T/C was 81.9%.

Turning to `COc1cccc2c1C(=O)c1c(O)c3c(c(O)c1C2=O)CC(O)(C(=O)CO)CC3OC1CC(N)C(O)C(C)O1` (centres undefined) + Cc1cncc(-c2nc(NCCc3c[nH]c4ccccc34)c3ncn(C(C)C)c3n2)c1, the viability, T/C was 18.5%.

Consider `Nc1ncn(C2CC(O)C(CO)O2)c(=O)n1` (centres undefined) + Cc1cncc(-c2nc(NCCc3c[nH]c4ccccc34)c3ncn(C(C)C)c3n2)c1, for which the viability, T/C was 46.6%.

Staying with this assay, now noted: second compound 10 µM; first compound 0.316 µM; active compounds read low.
In the case of `CC(C)c1c(-c2ccccc2)nc2c(C#N)c[nH]n2c1=O` + Cc1ccccc1N=Nc1ccc(NC(=O)c2ccnn2C)c(C)c1, the viability, T/C was 92.6%.

Consider `CC1COCCN1c1cc(-c2ccnn2C)c2ccnc(-c3ccn[nH]3)c2n1` (centres undefined) + Cc1ccccc1N=Nc1ccc(NC(=O)c2ccnn2C)c(C)c1, for which the viability, T/C is 10.4%.

In the case of `COc1ccc([C@@H](O)c2cc(-c3ncnc4cc(N5CCOCC5)ccc34)c(F)cc2Cl)nn1` + Cc1ccccc1N=Nc1ccc(NC(=O)c2ccnn2C)c(C)c1, the viability, T/C was 91%.

On to `COc1cccc2c1C(=O)c1c(O)c3c(c(O)c1C2=O)CC(O)(C(=O)CO)CC3OC1CC(N)C(O)C(C)O1` (centres undefined) + Cc1cncc(-c2nc(NCCc3c[nH]c4ccccc34)c3ncn(C(C)C)c3n2)c1, for which the viability, T/C is 3.26%.

`Nc1ncn(C2CC(O)C(CO)O2)c(=O)n1` (centres undefined) + Cc1cncc(-c2nc(NCCc3c[nH]c4ccccc34)c3ncn(C(C)C)c3n2)c1: the viability, T/C was 52.6%.

The same assay, now with this note: second compound 10 µM; first compound 1 µM; active compounds read low.
Turning to `CC(C)c1c(-c2ccccc2)nc2c(C#N)c[nH]n2c1=O` + Cc1ccccc1N=Nc1ccc(NC(=O)c2ccnn2C)c(C)c1, the viability, T/C is 101%.

As for `CC1COCCN1c1cc(-c2ccnn2C)c2ccnc(-c3ccn[nH]3)c2n1` (centres undefined) + Cc1ccccc1N=Nc1ccc(NC(=O)c2ccnn2C)c(C)c1, the viability, T/C is 7.02%.

Consider `COc1ccc([C@@H](O)c2cc(-c3ncnc4cc(N5CCOCC5)ccc34)c(F)cc2Cl)nn1` + Cc1ccccc1N=Nc1ccc(NC(=O)c2ccnn2C)c(C)c1, for which the viability, T/C was 80.5%.

Regarding `COc1cccc2c1C(=O)c1c(O)c3c(c(O)c1C2=O)CC(O)(C(=O)CO)CC3OC1CC(N)C(O)C(C)O1` (centres undefined) + Cc1cncc(-c2nc(NCCc3c[nH]c4ccccc34)c3ncn(C(C)C)c3n2)c1, the viability, T/C was 0.12%.

For `Nc1ncn(C2CC(O)C(CO)O2)c(=O)n1` (centres undefined) + Cc1cncc(-c2nc(NCCc3c[nH]c4ccccc34)c3ncn(C(C)C)c3n2)c1, the viability, T/C is 68.6%.

The assay is the same for the next values; noted with them: second compound 10 µM; first compound 3.16 µM; active compounds read low.
In the case of `CC(C)c1c(-c2ccccc2)nc2c(C#N)c[nH]n2c1=O` + Cc1ccccc1N=Nc1ccc(NC(=O)c2ccnn2C)c(C)c1, the viability, T/C is 85.8%.

On to `COc1ccc([C@@H](O)c2cc(-c3ncnc4cc(N5CCOCC5)ccc34)c(F)cc2Cl)nn1` + Cc1ccccc1N=Nc1ccc(NC(=O)c2ccnn2C)c(C)c1, for which the viability, T/C is 90.9%.

For `COc1cccc2c1C(=O)c1c(O)c3c(c(O)c1C2=O)CC(O)(C(=O)CO)CC3OC1CC(N)C(O)C(C)O1` (centres undefined) + Cc1cncc(-c2nc(NCCc3c[nH]c4ccccc34)c3ncn(C(C)C)c3n2)c1, the viability, T/C was 0.49%.

The same assay, now with this note: second compound 10 µM; first compound 10 µM; active compounds read low.
Turning to `CC(C)c1c(-c2ccccc2)nc2c(C#N)c[nH]n2c1=O` + Cc1ccccc1N=Nc1ccc(NC(=O)c2ccnn2C)c(C)c1, the viability, T/C was 90.1%.

With `COc1ccc([C@@H](O)c2cc(-c3ncnc4cc(N5CCOCC5)ccc34)c(F)cc2Cl)nn1` + Cc1ccccc1N=Nc1ccc(NC(=O)c2ccnn2C)c(C)c1, the viability, T/C was 47.5%.

Take `COc1cccc2c1C(=O)c1c(O)c3c(c(O)c1C2=O)CC(O)(C(=O)CO)CC3OC1CC(N)C(O)C(C)O1` (centres undefined) + Cc1cncc(-c2nc(NCCc3c[nH]c4ccccc34)c3ncn(C(C)C)c3n2)c1: the viability, T/C is 0.31%.
